Measurements taken from PubChem BioAssay (NCI).
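All cell lines were grown in 96-well plates and treated with compound for 48 hours. At the GI50, growth is halved. TGI: concentration producing complete growth inhibition.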

Tests used:
Test in all cases: NCI tumour cell line growth inhibition, 48 h
CAKI-1 renal = system: CAKI-1 renal
HS 578T breast = system: HS 578T breast
NCI-H226 lung = system: NCI-H226 lung
SK-MEL-28 melanoma = system: SK-MEL-28 melanoma
LOX IMVI melanoma = system: LOX IMVI melanoma
SK-OV-3 ovarian = system: SK-OV-3 ovarian
OVCAR-4 ovarian = system: OVCAR-4 ovarian
HCT-15 colon = system: HCT-15 colon
A549 NSCLC = system: A549 NSCLC
MCF7 breast = system: MCF7 breast

Row | Compound | GI50 (CAKI-1 renal) | TGI (CAKI-1 renal) | GI50 (HS 578T breast) | TGI (HS 578T breast) | GI50 (NCI-H226 lung) | TGI (NCI-H226 lung) | GI50 (SK-MEL-28 melanoma) | TGI (SK-MEL-28 melanoma) | GI50 (LOX IMVI melanoma) | TGI (LOX IMVI melanoma) | GI50 (SK-OV-3 ovarian) | TGI (SK-OV-3 ovarian) | GI50 (OVCAR-4 ovarian) | TGI (OVCAR-4 ovarian) | GI50 (HCT-15 colon) | TGI (HCT-15 colon) | GI50 (A549 NSCLC) | TGI (A549 NSCLC) | GI50 (MCF7 breast) | TGI (MCF7 breast)
1 | CN1CCN(C(=O)OCc2nc3c(N4CCOCC4)nc(Cl)nc3n2C)CC1 | 1.03 µM | 2.31 µM | 1.64 µM | 5.38 µM | 1.96 µM | 5.41 µM | 1.58 µM | 3.11 µM | 0.579 µM | 1.99 µM | 6.15 µM | 18.8 µM | 1.06 µM | 2.27 µM | 0.905 µM | 2.79 µM | 1.81 µM | 5.25 µM | – | –
2 | C=C1C(=O)O[C@H]2[C@H]1CC/C(Cn1cc(-c3ccc(OC)cc3)nn1)=C\CC[C@@]1(C)O[C@@H]21 | 1.03 µM | 3.63 µM | 7.42 µM | 36.9 µM | 1.99 µM | 4.45 µM | 0.822 µM | 2.41 µM | 1.16 µM | 2.51 µM | 16.3 µM | 29.9 µM | 1.52 µM | 3.33 µM | 0.338 µM | 1.38 µM | 10.9 µM | 24.4 µM | – | –
3 | CC(C)c1nc(CN(C)C(=O)N[C@H](C(=O)N[C@@H](Cc2ccccc2)C[C@H](O)[C@H](Cc2ccccc2)NC(=O)OCc2cncs2)C(C)C)cs1 | 31.3 µM | 68.2 µM | – | – | 18.8 µM | 39.4 µM | 21.5 µM | 47.2 µM | 18.9 µM | 40.1 µM | 35.8 µM | > 100 µM | 27.2 µM | > 92.1 µM | 24.5 µM | > 100 µM | 23 µM | 65.5 µM | 21 µM | 64.9 µM
4 | O=C(c1ccccc1)c1nnc(C(=O)c2ccccc2)nn1 | – | > 344 µM | – | – | – | > 344 µM | – | > 344 µM | – | > 344 µM | – | > 344 µM | – | > 344 µM | – | > 344 µM | – | > 344 µM | – | –
5 | C/C(CC(=O)Nc1cc(Cl)c(Cl)cc1Cl)=N\NC(N)=O | – | – | – | – | – | > 100 µM | – | > 100 µM | – | > 100 µM | – | > 100 µM | – | – | – | – | – | > 100 µM | – | –
6 | N#Cc1cc([N+](=O)[O-])ccc1NC(=O)C(=O)Nc1n[nH]c(N)n1 | – | > 100 µM | – | – | – | > 100 µM | – | > 100 µM | – | > 100 µM | – | > 100 µM | – | > 100 µM | – | > 100 µM | – | > 100 µM | – | –
7 | CC(C)(CC(=O)Nc1ccccc1)C(=O)O | – | > 100 µM | – | – | – | > 100 µM | – | > 100 µM | – | > 100 µM | – | > 100 µM | – | > 100 µM | – | > 100 µM | – | > 100 µM | – | > 100 µM
8 | CC(C)(C)C1C=C(Sc2ccccc2)C(=O)O1 (stereo not given) | – | > 100 µM | – | – | – | > 100 µM | – | > 100 µM | – | > 100 µM | – | > 100 µM | – | > 100 µM | – | > 100 µM | – | > 100 µM | – | –
9 | O=C(/N=N/C(=O)OCc1ccccc1)OCc1ccccc1 | – | > 100 µM | – | – | – | – | – | – | – | > 100 µM | – | > 100 µM | – | > 100 µM | – | > 100 µM | – | > 100 µM | – | –
10 | O=C1CCC(=O)N2CCCCN12 | – | > 100 µM | – | – | – | > 100 µM | – | > 100 µM | – | > 100 µM | – | > 100 µM | – | > 100 µM | – | > 100 µM | – | > 100 µM | – | –
11 | Cc1cc2c(cc1C)[n+](=O)c(C(=O)C/C(=N/NC(=O)CC#N)C(=O)Nc1ccccc1C(F)(F)F)c(C)n2[O-] | – | > 100 µM | – | – | – | > 100 µM | – | > 100 µM | – | > 100 µM | – | > 100 µM | – | > 100 µM | – | > 100 µM | – | > 100 µM | – | –
12 | CCc1ccc(/C=C\c2cc(OC)c(OC)c(OC)c2)cc1 | 1.02 µM | > 100 µM | – | 0.106 µM | – | 0.0792 µM | 0.0395 µM | > 100 µM | – | 0.581 µM | – | – | – | > 100 µM | 0.0327 µM | – | – | 53.1 µM | – | –
13 | O=C1O[C@@H](c2ccc3c(c2)OCO3)C2C(=O)O[C@@H](c3ccc4c(c3)OCO4)C12 (stereo not given in full) | – | – | – | – | – | > 100 µM | – | > 100 µM | – | > 100 µM | – | > 100 µM | – | > 100 µM | – | > 100 µM | – | > 100 µM | – | –
14 | C/C(CC(=O)Nc1ccc(C)cc1C)=N/N=C(N)N | – | – | – | – | – | > 100 µM | – | > 100 µM | – | > 100 µM | – | > 100 µM | – | – | – | – | – | > 100 µM | – | –
15 | CC(=O)OCCN1c2ccccc2Sc2cnccc21 | – | > 10 µM | – | – | – | > 10 µM | – | > 10 µM | – | > 10 µM | – | > 10 µM | – | > 10 µM | – | > 10 µM | – | > 10 µM | – | > 10 µM
16 | O=C1C2c3[nH]c4ccccc4c3C3CCCCCCC3C2C(=O)N1c1ccccc1 (stereo not given) | – | – | – | – | – | – | – | 43.7 µM | – | 17.2 µM | – | 6.37 µM | – | 15.4 µM | – | > 100 µM | – | 24.9 µM | – | –
17 | CCC[CH2][Sn]1([CH2]CCC)[O]Cc2nc(C)ccc2[O]1 | 2.36 µM | 9.03 µM | – | – | 14 µM | 27.1 µM | 10.6 µM | 22.4 µM | 1.95 µM | 3.97 µM | 15.8 µM | 29.7 µM | 3.95 µM | 17.6 µM | 10.1 µM | 21.9 µM | 19 µM | 33.1 µM | – | –
18 | COc1ccc(/C(COc2c(-c3ccccc3)oc3ccccc3c2=O)=N\O)cc1 | – | – | – | – | 20.8 µM | > 50 µM | 15 µM | > 50 µM | 12.4 µM | 26.5 µM | 16.9 µM | > 50 µM | 37.1 µM | > 50 µM | 19.5 µM | > 50 µM | 23.2 µM | > 50 µM | 10.8 µM | 29.5 µM
19 | COc1ccc(C2=CC3CCC2C3)cc1 (stereo not given) | – | > 100 µM | – | – | – | – | – | > 100 µM | – | > 100 µM | – | > 100 µM | – | > 100 µM | – | > 100 µM | – | > 100 µM | – | –
20 | CC1=NN(C(=O)Nc2ccccc2)C(=O)C2CCC(=O)N12 (stereo not given) | – | > 100 µM | – | – | – | – | – | > 100 µM | – | > 100 µM | – | > 100 µM | – | > 100 µM | – | > 100 µM | – | > 100 µM | – | –
21 | O=C1Nc2c(C(F)(F)F)cccc2[C@]1(c1ccc(O)cc1)c1ccc(OC(F)(F)F)cc1 | 10.1 µM | 22.7 µM | 1.44 µM | 5.89 µM | 11.6 µM | 32.4 µM | 15 µM | 28.8 µM | – | – | 17.3 µM | 36.5 µM | 0.543 µM | 5.23 µM | 9.43 µM | 23.3 µM | 5.26 µM | 20 µM | 4.05 µM | 16.9 µM
